Common to all, as to assay type: biochemical
For test [1], the target named is T1, recombinant human sPLA2-IIA enzyme (Homo sapiens, UniProt P14555).
T1 construct: made in house; host or cells: E. coli
T1 sequence (P14555 21-144): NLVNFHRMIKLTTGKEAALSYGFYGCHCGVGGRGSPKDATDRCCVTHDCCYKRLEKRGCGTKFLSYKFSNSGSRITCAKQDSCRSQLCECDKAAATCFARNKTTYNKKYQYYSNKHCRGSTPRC
In words: sPLA2-IIA enzyme inhibition assay (thio-PC substrate, DTNB detection, absorbance 410 nm). The conditions noted are these: class symbols; read-out: sPLA2 Type IIa Inhibition (IC50; nM). The text has this:
(§1) Screening Compounds for Inhibition of sPLA2-X, sPLA2-V, and sPLA2-IIA Enzyme Activity
(§2) These sPLA2 enzymes hydrolyze the sn-2 acyl chains of glycerophospholipids, resulting in the release of a free fatty acid and a lysophospholipid. In the case of the thio-PC substrate, this enzymatic hydrolysis results in a free sulfhydryl group remaining on the lysophospholipid. This free sulfhydryl reacts with DTNB to produce the chromogenic product 5-nitro-2-thiobenzoic acid (TNB) which can be quantitated by absorbance at 410 nm. The amount of TNB produced reflects the hydrolytic activity of the enzyme.
(§3) The recombinant human sPLA2 groups IIA, V, and X enzymes were expressed in E. coli and purified to >90% purity by standard biochemical methods.
(§4) Procedure of Enzyme Inhibition for sPLA2-X • 1. […] Dilute the test compounds in 100% DMSO by half-log steps in a 96-well dilution plate using columns 1-11 (one compound per row). Column 12 contains DMSO alone with no compound. • 3. Prepare a 3.5 mM thio-PC substrate solution by drying down 7.2 mg of stock thio-PC in ethanol under a gentle stream of N2 gas. When dry, add 4 mL assay buffer (25 mM Tris, pH7.4; 100 mM KCl; 10 mM CaCl2; 0.1% Triton X-100) and warm in a 37° C. water bath for 20 minutes with intermittent vortexing. • 4. Prepare an “enzyme containing” reaction mix with the following components: 20.4 mL assay buffer; 2 mL DTNB (20 mM in 800 mM Tris, pH8.0); and 11.8 mg recombinant human sPLA2-X enzyme (>95% pure) diluted to a total of 0.8 mL assay buffer. • 5. Prepare a “no enzyme” reaction mix with the following components: 477 μL assay buffer and 45 μL DTNB. • 6. Dispense 58 μL “no enzyme” reaction mix into each of 8 wells (columns 23 and 24, rows M-P). • 7. Dispense 58 μL “enzyme containing” reaction mix into all remaining wells on the plate. • 8. From the 96-well compound dilution plate, add 2 μL from each well for each compound to each of 4 wells with “enzyme containing” reaction mix. Columns 23 and 24 on the assay plate will contain only DMSO (vehicle control). […] After compound addition, mix the contents of each well to ensure that the DMSO is evenly distributed in the well. • 9. Cover the plate and incubate in the dark at room temperature for 15 minutes. • 10. Add 10 μL of thio-PC substrate to all wells. The final concentration of thio-PC in the reactions is 0.5 mM. • 11. Cover the plate and incubate in the dark at room temperature for 30 minutes. • 12. Measure the absorbance of all wells at 410 nm. • 13. Determine the mean absorbance of the “no enzyme” wells. Subtract this value from the absorbance values determined for all other wells (these are now background corrected data). • 14. […] Procedure of Enzyme Inhibition for sPLA2-V • 1. […] Dilute the test compounds in 100% DMSO by half-log steps in a 96-well dilution plate using columns 1-11. Column 12 contains DMSO alone with no compound. • 3. Prepare a 3.5 mM thio-PC substrate solution by drying down 7.2 mg of stock thio-PC in ethanol under a gentle stream of N2 gas. When dry, add 4 mL assay buffer (25 mM Tris, pH7.4; 100 mM KCl; 10 mM CaCl2; 0.1% Triton X-100) and warm in a 37° C. water bath for 20 minutes with intermittent vortexing. • 4. Prepare an “enzyme containing” reaction mix with the following components: 20.4 mL assay buffer; 2 mL DTNB (20 mM in 800 mM Tris, pH8.0); and 12 mg recombinant human sPLA2-V enzyme (>95% pure) diluted to a total of 0.8 mL assay buffer. • 5. Prepare a “no enzyme” reaction mix with the following components: 477 μL assay buffer and […]. • 6. Dispense 58 μL “no enzyme” reaction mix into each of 8 wells (columns 23 and 24, rows M-P). • 7. Dispense 58 μL “enzyme containing” reaction mix into all remaining wells on the plate. • 8. From the 96-well compound dilution plate, add 2 μL from each well for each compound to each of 4 wells with “enzyme containing” reaction mix. Columns 23 and 24 on the assay plate will contain only DMSO (vehicle control).

A further test concerns the target T2, sPLA2-X protein (Homo sapiens, UniProt O15496).
T2 sequence (O15496 43-165): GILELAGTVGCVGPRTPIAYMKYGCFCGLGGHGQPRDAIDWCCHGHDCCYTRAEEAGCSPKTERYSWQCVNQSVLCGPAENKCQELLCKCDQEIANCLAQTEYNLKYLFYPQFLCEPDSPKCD
In words: sPLA2-X enzyme inhibition assay (thio-PC substrate, DTNB detection, absorbance 410 nm). The arrangement: made in house; host or cells: E. coli. Particulars: class symbols; read-out: sPLA2 Type X Inhibition (IC50; nM).
Source text: as §1, §2, §3, §4

Test [2] concerns the target T3, recombinant human sPLA2-V enzyme (Homo sapiens, UniProt P39877).
T3 construct: made in house; host or cells: E. coli
T3 sequence (P39877 21-138): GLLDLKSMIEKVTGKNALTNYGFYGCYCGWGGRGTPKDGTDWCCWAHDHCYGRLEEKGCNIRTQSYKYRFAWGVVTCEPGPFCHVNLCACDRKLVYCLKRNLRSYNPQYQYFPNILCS
In words: sPLA2-V enzyme inhibition assay (thio-PC substrate, DTNB detection, absorbance 410 nm). Particulars: class symbols; read-out: sPLA2 Type V Inhibition (IC50; nM).
Source text: as §1, §2, §3, §4

Structures can show the parent of a compound that is named as a salt.

For the molecule `NC(=O)c1cc2ccc(OC(F)(F)F)cc2n1-c1cccc(C2CC2C(=O)O)n1` (racemic) [Compound 28c, cis-(rac)-2-(6-(2-carbamoyl-6-(trifluoromethoxy)-1H-indol-1-yl)pyridin-2-yl)cyclopropane-1-carboxylic acid], the IC50 (commonly the concentration at which inhibition is half-maximal) in test [1] fell in the range of 200 to 500 nM; on sPLA2-X protein, 20 to 50 nM; in test [2], 1500 to 5000 nM.
With `NC(=O)c1cc2ccc(OC(F)(F)F)cc2n1-c1cccc(SC2(C(=O)O)CCC2)c1` [Compound 4, 1-((3-(2-carbamoyl-6-(trifluoromethoxy)-1H-indol-1-yl)phenyl)thio)cyclobutane-1-carboxylic acid], the IC50 in test [1] was 200 to 500 nM; at sPLA2-X protein it was less than 20 nM; in test [2], less than 500 nM.
On to `O=C(O)c1cc2ccc(OC(F)(F)F)cc2n1-c1cccc(C2(C(=O)O)CC2)n1` [Compound 39, 1-(6-(1-carboxycyclopropyl)pyridin-2-yl)-6-(trifluoromethoxy)-1H-indole-2-carboxylic acid], for which the half-inhibitory concentration (IC50) was greater than 1000 nM in test [1], greater than 200 nM at sPLA2-X protein and greater than 5000 nM in test [2].
For `C[C@@]1(c2cccc(-n3c(C(N)=O)cc4ccc(OC(F)(F)F)cc43)c2)C[C@H]1C(=O)O` (relative stereo) [Compound 38b, trans-2-(3-(2-carbamoyl-6-(trifluoromethoxy)-1H-indol-1-yl)phenyl)-2-methylcyclopropane-1-carboxylic acid], in that order: greater than 1000 nM, 20 to 50 nM and greater than 5000 nM.
In the case of `CNC(=O)c1cc2ccc(OC(F)(F)F)cc2n1-c1cccc(CCC(=O)O)c1` [Compound 14, 3-(3-(2-(methylcarbamoyl)-6-(trifluoromethoxy)-1H-indol-1-yl)phenyl)propanoic acid], the IC50 in test [1] is greater than 1000 nM; on sPLA2-X protein it was greater than 200 nM; in test [2], greater than 5000 nM.
As to `CC(C)(Cc1cccc(-n2c(C(N)=O)cc3ccc(OC(F)(F)F)cc32)n1)C(=O)O` [Compound 8, 3-(6-(2-carbamoyl-6-(trifluoromethoxy)-1H-indole-1-yl)pyridin-2-yl)-2,2-dimethylpropanoic acid], the half-maximal inhibitory concentration (IC50) in test [1] is greater than 1000 nM; on sPLA2-X protein, 50 to 200 nM; in test [2], greater than 5000 nM.
`NC(=O)c1cc2ccc(OC(F)(F)F)cc2n1-c1cccc(C2(NCC(=O)O)CCC2)n1` [Compound 50, (1-(6-(2-carbamoyl-6-(trifluoromethoxy)-1H-indol-1-yl)pyridin-2-yl)cyclobutyl)glycine]: the IC50 in test [1] was greater than 1000 nM; at sPLA2-X protein it was 20 to 50 nM; in test [2], greater than 5000 nM.
With `NC(=O)c1cc2ccc(OC(F)(F)F)cc2n1-c1cccc([C@H](N)CC(=O)O)c1` [Compound 42, (R)-3-amino-3-(3-(2-carbamoyl-6-(trifluoromethoxy)-1H-indol-1-yl)phenyl)propanoic acid], the half-inhibitory concentration (IC50) was greater than 1000 nM in test [1], greater than 200 nM on sPLA2-X protein and greater than 5000 nM in test [2].
On the same counts, the results for `NC(=O)c1cc2ccc(OC(F)(F)F)cc2n1-c1cccc(C[C@H](N)C(=O)O)c1` [Compound 24, (S)-2-amino-3-(3-(2-carbamoyl-6-(trifluoromethoxy)-1H-indol-1-yl)phenyl)propanoic acid TFA salt] are greater than 1000 nM, greater than 200 nM and greater than 5000 nM.
With `NC(=O)c1cc2ccccc2n1-c1cccc(CCC(=O)O)c1` [Compound 21, 3-(3-(2-carbamoyl-1H-indol-1-yl)phenyl)propanoic acid], the IC50 in test [1] is greater than 1000 nM; on sPLA2-X protein, greater than 200 nM; in test [2] it was greater than 5000 nM.
`N[C@@H](CC(=O)O)c1cccc(-n2c(C(=O)O)cc3ccc(OC(F)(F)F)cc32)c1` [Compound 41, (S)-1-(3-(1-amino-2-carboxyethyl)phenyl)-6-(trifluoromethoxy)-1H-indole-2-carboxylic acid]: the 50% inhibitory concentration (IC50) in test [1] was greater than 1000 nM; on sPLA2-X protein it was greater than 200 nM; in test [2] it was greater than 5000 nM.
Consider `NC(=O)c1sc2ccccc2c1-c1cccc(CCC(=O)O)c1` [Compound 13, 3-(3-(2-carbamoylbenzo[b]thiophen-3-yl)phenyl)propanoic acid], for which the half-maximal inhibitory concentration (IC50) in test [1] was greater than 1000 nM; on sPLA2-X protein it was greater than 200 nM; in test [2] it was greater than 5000 nM.
In the case of `CC(C)(C)OC(=O)NCc1cccc(-n2c(C(N)=O)cc3ccc(OC(F)(F)F)cc32)n1` [Compound 26, tert-butyl ((6-(2-carbamoyl-6-(trifluoromethoxy)-1H-indol-1-yl)pyridin-2-yl)methyl)carbamate], the results for the IC50 (in test [1]; on sPLA2-X protein; in test [2]) were greater than 1000 nM, greater than 200 nM and greater than 5000 nM, respectively.
On the same counts, the results for `NC(=O)c1nc2ccc(OC(F)(F)F)cc2n1-c1cccc(C2CC2C(=O)O)n1` (stereo not drawn) [Compound 58, trans-2-(6-(2-carbamoyl-6-(trifluoromethoxy)-1H-benzo[d]imidazol-1-yl)pyridin-2-yl)cyclopropane-1-carboxylic acid] are greater than 1000 nM, greater than 200 nM and greater than 5000 nM.
As to `NC(=O)c1cc2ccc(OC(F)(F)F)cc2n1-c1ccc2oc(C(=O)O)cc2c1` [Compound 16, 5-(2-carbamoyl-6-(trifluoromethoxy)-1H-indol-1-yl)benzofuran-2-carboxylic acid], the concentration for half-maximal inhibition (IC50) in test [1] is greater than 1000 nM; on sPLA2-X protein, 50 to 200 nM; in test [2], greater than 5000 nM.
With `NC(=O)c1oc2ccc(OC(F)(F)F)cc2c1-c1cccc(CCC(=O)O)c1` [Compound 17, 3-(3-(2-carbamoyl-5-(trifluoromethoxy)benzofuran-3-yl)phenyl)propanoic acid], the IC50 was greater than 1000 nM in test [1], greater than 200 nM at sPLA2-X protein and greater than 5000 nM in test [2].
On the same counts, the results for `CC(=O)NCc1cccc(-n2c(C(N)=O)cc3ccc(OC(F)(F)F)cc32)n1` [Compound 32, 1-(6-(acetamidomethyl)pyridin-2-yl)-6-(trifluoromethoxy)-1H-indole-2-carboxamide] are greater than 1000 nM, greater than 200 nM and greater than 5000 nM.
As to `CC(C)(Sc1cccc(-n2c(C(N)=O)cc3ccc(OC(F)(F)F)cc32)c1)C(=O)O` [Compound 2, 2-((3-(2-carbamoyl-6-(trifluoromethoxy)-1H-indol-1-yl)phenyl)thio)-2-methylpropanoic acid], the IC50 was 200 to 500 nM in test [1], less than 20 nM on sPLA2-X protein and 500 to 1500 nM in test [2].

These data come from patent US20260034111A1, “NOVEL HETEROCYCLES AS sPLA2-X INHIBITORS” (Cayman Chemical Company Incorporated, priority 2022, published 2026).
